Assay results published in patent US9474790B2, “Stable, protracted GLP-1/glucagon receptor co-agonists for medical use” (Novo Nordisk A/S, priority 2013, dated 2016).
Numbered stars: 1 amine (or outer) side, 2 acyl side, 3 side chain; on linkers, the order of the positions; unused ones are H or OH. Square brackets hold non-standard residues; d marks the D form. Side chains are listed from the residue outwards. Peptide text beside a SMILES is read from it. * marks the point of attachment. C18 diacid = O=C(O)CCCCCCCCCCCCCCCCC(=O)*; γGlu = O=C(O)[C@H](CCC(=O)[*:2])N[*:1]; Ac4c = NC1(C(=O)O)CCC1; AEEA = NCCOCCOCC(=O)O; Aib = CC(C)(N)C(=O)O

How the values were obtained:
[1] = molecular target: T1, human glucagon receptor (Homo sapiens, UniProt P47871); assay: Glucagon receptor potency, CRE luciferase reporter gene assay in BHK cells; type: cell-based; conditions: BHK cells expressing human glucagon receptor, read-out: EC50 GlucR
T1 construct: expressed in transfected cells; host or cells: BHK cells (parent BHK570, CRE luciferase clone BHK/KZ10-20-48), clone pLJ6'-4-25
T1 sequence (P47871 26-477): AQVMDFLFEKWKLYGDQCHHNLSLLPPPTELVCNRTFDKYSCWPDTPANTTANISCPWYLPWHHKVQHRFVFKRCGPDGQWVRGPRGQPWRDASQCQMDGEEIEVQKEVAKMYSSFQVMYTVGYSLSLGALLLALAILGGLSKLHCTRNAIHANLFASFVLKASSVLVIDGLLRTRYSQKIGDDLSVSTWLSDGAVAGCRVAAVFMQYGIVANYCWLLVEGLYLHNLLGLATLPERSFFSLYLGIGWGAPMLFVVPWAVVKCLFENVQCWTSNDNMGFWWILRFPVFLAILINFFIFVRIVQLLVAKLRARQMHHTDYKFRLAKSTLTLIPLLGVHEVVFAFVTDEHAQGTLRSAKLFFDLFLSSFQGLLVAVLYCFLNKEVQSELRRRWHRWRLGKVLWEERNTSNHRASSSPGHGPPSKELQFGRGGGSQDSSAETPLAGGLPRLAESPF
How it was run: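 EC50 (pM) comes from a four-parameter fit of luciferase luminescence after 3 h at 37 °C with compound at final 1×10EE-13–1×10EE-6 M. Cells: BHK570-derived line carrying human glucagon receptor plus CRE-luciferase, 5×10EE3/well, in assay medium with 2% ovalbumin, 0.2% Pluronic F-68.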

[2] = molecular target: T2, human GLP-1 receptor (Homo sapiens, UniProt P43220); assay: GLP-1 receptor potency, CRE luciferase reporter gene assay in BHK cells; type: cell-based; conditions: BHK cells expressing human GLP-1 receptor, read-out: EC50 GLP-1R
T2 construct: expressed in transfected cells; host or cells: BHK cells (parent BHKTS13), clone FCW467-12A/KZ10-1, with CRE luciferase
T2 sequence (P43220 24-463): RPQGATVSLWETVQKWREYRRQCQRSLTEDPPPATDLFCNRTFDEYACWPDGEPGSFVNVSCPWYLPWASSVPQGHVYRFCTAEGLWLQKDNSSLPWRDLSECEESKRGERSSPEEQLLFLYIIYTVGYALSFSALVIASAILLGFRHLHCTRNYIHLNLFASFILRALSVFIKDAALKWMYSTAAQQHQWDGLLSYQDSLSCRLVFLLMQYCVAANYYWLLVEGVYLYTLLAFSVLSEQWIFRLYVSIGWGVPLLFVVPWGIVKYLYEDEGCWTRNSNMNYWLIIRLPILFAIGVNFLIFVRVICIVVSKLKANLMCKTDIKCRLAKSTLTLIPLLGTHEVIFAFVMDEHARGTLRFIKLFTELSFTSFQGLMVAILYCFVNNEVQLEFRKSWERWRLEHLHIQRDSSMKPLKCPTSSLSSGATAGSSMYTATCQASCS
How it was run: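 Potency as cAMP-driven firefly luciferase signal after 3 h, 37° C exposure to 10-fold dilutions (final 1×10EE-13–1×10EE-6 M). Stable hGLP-1R/CRE-luc BHK clone, 5×10EE3 cells/well, medium containing 2% ovalbumin and 0.2% Pluronic F-68; EC50 (pM) from variable-slope non-linear regression.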

Structure (SMILES) | EC50 [1] | EC50 [2]
CC(C)C[C@H](NC(=O)[C@H](CC(=O)O)NC(=O)[C@H](CC(C)C)NC(=O)[C@H](Cc1ccc(O)cc1)NC(=O)[C@H](CCCCN)NC(=O)[C@H](CO)NC(=O)[C@H](CC(C)C)NC(=O)[C@H](CC(=O)O)NC(=O)[C@H](CO)NC(=O)[C@@H](NC(=O)[C@H](Cc1ccccc1)NC(=O)[C@@H](NC(=O)CNC(=O)[C@H](CCC(N)=O)NC(=O)C1(NC(=O)[C@@H](N)Cc2c[nH]cn2)CCC1)[C@@H](C)O)[C@@H](C)O)C(=O)N[C@@H](CCCCN)C(=O)N[C@@H](CCCNC(=N)N)C(=O)N[C@@H](C)C(=O)N[C@@H](CCCNC(=N)N)C(=O)N[C@@H](CCC(=O)O)C(=O)N[C@@H](Cc1ccccc1)C(=O)N[C@H](C(=O)N[C@@H](CCC(N)=O)C(=O)N[C@@H](Cc1c[nH]c2ccccc12)C(=O)N[C@@H](CC(C)C)C(=O)N[C@@H](CC(C)C)C(=O)N[C@@H](CCCCNC(=O)CC[C@H](NC(=O)CC[C@H](NC(=O)COCCOCCNC(=O)COCCOCCNC(=O)CC[C@H](NC(=O)CC[C@H](NC(=O)CCCCCCCCCCCCCCCCC(=O)O)C(=O)O)C(=O)O)C(=O)O)C(=O)O)C(=O)N[C@H](C(N)=O)[C@@H](C)O)C(C)C [Example 47, N^ε28-[(4S)-4-carboxy-4-[[(4S)-4-carboxy-4-[[2-[2-[2-[[2-[2-[2-[[(4S)-4-carboxy-4-[[(4S)-4-carboxy-4-(17-carboxyheptadecanoylamino)butanoyl]amino]butanoyl]amino]ethoxy]ethoxy]acetyl]amino]ethoxy]ethoxy]acetyl]amino]butanoyl]amino]butanoyl]-[Acb2,Leu10,Leu16,Lys17,Arg20,Glu21,Leu27,Lys28]-Glucagon amide] (H-H[Ac4c]QGTFTSDLSKYLDLKRAREFVQWLLK([γGlu-γGlu-AEEA-AEEA-γGlu-γGlu-C18 diacid])T-NH2; N-terminus assumed) | 5 pM | 17 pM
CC(C)C[C@H](NC(=O)[C@H](CC(=O)O)NC(=O)[C@H](CC(C)C)NC(=O)[C@H](Cc1ccc(O)cc1)NC(=O)[C@H](CCCCN)NC(=O)[C@H](CO)NC(=O)[C@H](CC(C)C)NC(=O)[C@H](CC(=O)O)NC(=O)[C@H](CO)NC(=O)[C@@H](NC(=O)[C@H](Cc1ccccc1)NC(=O)[C@@H](NC(=O)CNC(=O)[C@H](CCC(N)=O)NC(=O)C1(NC(=O)[C@@H](N)Cc2c[nH]cn2)CCC1)[C@@H](C)O)[C@@H](C)O)C(=O)N[C@@H](CCCNC(=N)N)C(=O)N[C@@H](CCCNC(=N)N)C(=O)N[C@@H](C)C(=O)N[C@@H](CCCNC(=N)N)C(=O)N[C@@H](CCC(=O)O)C(=O)N[C@@H](Cc1ccccc1)C(=O)N[C@H](C(=O)N[C@@H](CCC(N)=O)C(=O)N[C@@H](Cc1c[nH]c2ccccc12)C(=O)N[C@@H](CC(C)C)C(=O)N[C@@H](CC(C)C)C(=O)N[C@@H](CCCCNC(=O)CC[C@H](NC(=O)CC[C@H](NC(=O)COCCOCCNC(=O)COCCOCCNC(=O)CC[C@H](NC(=O)CC[C@H](NC(=O)CCCCCCCCCCCCCCCCC(=O)O)C(=O)O)C(=O)O)C(=O)O)C(=O)O)C(=O)N[C@H](C(N)=O)[C@@H](C)O)C(C)C [Example 49, N^ε28-[(4S)-4-carboxy-4-[[(4S)-4-carboxy-4-[[2-[2-[2-[[2-[2-[2-[[(4S)-4-carboxy-4-[[(4S)-4-carboxy-4-(17-carboxyheptadecanoylamino)butanoyl]amino]butanoyl]amino]ethoxy]ethoxy]acetyl]amino]ethoxy]ethoxy]acetyl]amino]butanoyl]amino]butanoyl]-[Acb2,Leu10,Leu16,Arg20,Glu21,Leu27,Lys28]-Glucagon amide] (H-H[Ac4c]QGTFTSDLSKYLDLRRAREFVQWLLK([γGlu-γGlu-AEEA-AEEA-γGlu-γGlu-C18 diacid])T-NH2; N-terminus assumed) | 4 pM | 17 pM

Further lines, results first:

EC50 [1] | EC50 [2] | Structure (SMILES)
4 pM | 6 pM | CC(C)C[C@H](NC(=O)[C@H](Cc1c[nH]c2ccccc12)NC(=O)[C@H](CCC(N)=O)NC(=O)[C@@H](NC(=O)[C@H](Cc1ccccc1)NC(=O)[C@H](CCC(=O)O)NC(=O)[C@H](CCCNC(=N)N)NC(=O)[C@H](C)NC(=O)[C@H](CCCNC(=N)N)NC(=O)[C@H](CCCNC(=N)N)NC(=O)C(C)(C)NC(=O)[C@H](CC(=O)O)NC(=O)[C@H](CC(C)C)NC(=O)[C@H](Cc1ccc(O)cc1)NC(=O)[C@H](CCCCN)NC(=O)[C@H](CO)NC(=O)[C@H](CC(C)C)NC(=O)[C@H](CC(=O)O)NC(=O)[C@H](CO)NC(=O)[C@@H](NC(=O)[C@H](Cc1ccccc1)NC(=O)[C@@H](NC(=O)CNC(=O)[C@H](CCC(N)=O)NC(=O)C(C)(C)NC(=O)[C@@H](N)Cc1c[nH]cn1)[C@@H](C)O)[C@@H](C)O)C(C)C)C(=O)N[C@@H](CC(C)C)C(=O)N[C@@H](CCCCNC(=O)CC[C@H](NC(=O)CC[C@H](NC(=O)COCCOCCNC(=O)COCCOCCNC(=O)CC[C@H](NC(=O)CCCCCCCCCCCCCCCCC(=O)O)C(=O)O)C(=O)O)C(=O)O)C(=O)N[C@H](C(N)=O)[C@@H](C)O [Example 51, N^ε28-[(4S)-4-carboxy-4-[[(4S)-4-carboxy-4-[[2-[2-[2-[[2-[2-[2-[[(4S)-4-carboxy-4-(17-carboxyheptadecanoylamino)butanoyl]amino]ethoxy]ethoxy]acetyl]amino]ethoxy]ethoxy]acetyl]amino]butanoyl]amino]butanoyl]-[Aib2,Leu10,Aib16,Arg20,Glu21,Leu27,Lys28]-Glucagon amide] (H-H[Aib]QGTFTSDLSKYLD[Aib]RRAREFVQWLLK([γGlu-γGlu-AEEA-AEEA-γGlu-C18 diacid])T-NH2; N-terminus assumed)
16 pM | 4 pM | CC(C)C[C@H](NC(=O)[C@H](Cc1ccc(O)cc1)NC(=O)[C@H](CCCCN)NC(=O)[C@H](CO)NC(=O)[C@H](CC(C)C)NC(=O)[C@H](CC(=O)O)NC(=O)[C@H](CO)NC(=O)[C@@H](NC(=O)[C@H](Cc1ccccc1)NC(=O)[C@@H](NC(=O)CNC(=O)[C@H](CCC(N)=O)NC(=O)C(C)(C)NC(=O)[C@@H](N)Cc1c[nH]cn1)[C@@H](C)O)[C@@H](C)O)C(=O)N[C@@H](CCC(=O)O)C(=O)N[C@@H](CO)C(=O)N[C@@H](CCCCN)C(=O)N[C@@H](CCCNC(=N)N)C(=O)N[C@@H](C)C(=O)N[C@@H](CCCNC(=N)N)C(=O)N[C@@H](CCC(=O)O)C(=O)N[C@@H](Cc1ccccc1)C(=O)N[C@H](C(=O)N[C@@H](CCC(N)=O)C(=O)N[C@@H](Cc1c[nH]c2ccccc12)C(=O)N[C@@H](CC(C)C)C(=O)N[C@@H](CC(C)C)C(=O)N[C@@H](CCCCNC(=O)CC[C@H](NC(=O)CC[C@H](NC(=O)[C@H](CO)NC(=O)[C@H](CCC(=O)O)NC(=O)[C@H](CO)NC(=O)CC[C@H](NC(=O)CC[C@H](NC(=O)CCCCCCCCCCCCCCCCC(=O)O)C(=O)O)C(=O)O)C(=O)O)C(=O)O)C(=O)N[C@H](C(N)=O)[C@@H](C)O)C(C)C [Example 52] (H-H[Aib]QGTFTSDLSKYLESKRAREFVQWLLK([γGlu-γGlu-Ser-Glu-Ser-γGlu-γGlu-C18 diacid])T-NH2; N-terminus assumed)
12.7 pM | 2.7 pM | CC(C)C[C@H](NC(=O)[C@H](Cc1ccc(O)cc1)NC(=O)[C@H](CCCCN)NC(=O)[C@H](CO)NC(=O)[C@H](CC(C)C)NC(=O)[C@H](CC(=O)O)NC(=O)[C@H](CO)NC(=O)[C@@H](NC(=O)[C@H](Cc1ccccc1)NC(=O)[C@@H](NC(=O)CNC(=O)[C@H](CCC(N)=O)NC(=O)C(C)(C)NC(=O)[C@@H](N)Cc1c[nH]cn1)[C@@H](C)O)[C@@H](C)O)C(=O)N[C@@H](CCC(=O)O)C(=O)N[C@@H](CO)C(=O)N[C@@H](CCCCN)C(=O)N[C@@H](CCCNC(=N)N)C(=O)N[C@@H](C)C(=O)N[C@@H](CCCNC(=N)N)C(=O)N[C@@H](CCC(=O)O)C(=O)N[C@@H](Cc1ccccc1)C(=O)N[C@H](C(=O)N[C@@H](CCC(N)=O)C(=O)N[C@@H](Cc1c[nH]c2ccccc12)C(=O)N[C@@H](CC(C)C)C(=O)N[C@@H](CC(C)C)C(=O)N[C@@H](CCCCNC(=O)CC[C@H](NC(=O)CC[C@H](NC(=O)[C@H](CO)NC(=O)[C@H](CCC(=O)O)NC(=O)[C@H](CO)NC(=O)CC[C@H](NC(=O)CC[C@H](NC(=O)CCCCCCCCCCCCCCCCC(=O)O)C(=O)O)C(=O)O)C(=O)O)C(=O)O)C(=O)N[C@H](C(N)=O)[C@@H](C)O)C(C)C [Example 54, N^ε28-[(4S)-4-carboxy-4-[[(4S)-4-carboxy-4-[[(2S)-2-[[(2S)-4-carboxy-2-[[(2S)-2-[[(4S)-4-carboxy-4-[[(4S)-4-carboxy-4-(17-carboxyheptadecanoylamino)butanoyl]amino]butanoyl]amino]-3-hydroxypropanoyl]amino]butanoyl]amino]-3-hydroxypropanoyl]amino]butanoyl]amino]butanoyl]-[Aib2,Leu10,Glu15,Lys17,Arg20,Glu21,Leu27,Lys28]-Glucagon amide] (H-H[Aib]QGTFTSDLSKYLESKRAREFVQWLLK([γGlu-γGlu-Ser-Glu-Ser-γGlu-γGlu-C18 diacid])T-NH2; N-terminus assumed)
